Experimental findings from patent US20230167073A1 (Teijin Pharma Limited, priority 2020, published 2023) are described below.

Structures are written as SMILES. A value given as a limit tells only on which side of the number the result lay.

The target of the first assay is T1, Human TRPC6 (Homo sapiens, UniProt Q9Y210).
T1 construct: expressed in transfected cells
T1 sequence (Q9Y210 1-931): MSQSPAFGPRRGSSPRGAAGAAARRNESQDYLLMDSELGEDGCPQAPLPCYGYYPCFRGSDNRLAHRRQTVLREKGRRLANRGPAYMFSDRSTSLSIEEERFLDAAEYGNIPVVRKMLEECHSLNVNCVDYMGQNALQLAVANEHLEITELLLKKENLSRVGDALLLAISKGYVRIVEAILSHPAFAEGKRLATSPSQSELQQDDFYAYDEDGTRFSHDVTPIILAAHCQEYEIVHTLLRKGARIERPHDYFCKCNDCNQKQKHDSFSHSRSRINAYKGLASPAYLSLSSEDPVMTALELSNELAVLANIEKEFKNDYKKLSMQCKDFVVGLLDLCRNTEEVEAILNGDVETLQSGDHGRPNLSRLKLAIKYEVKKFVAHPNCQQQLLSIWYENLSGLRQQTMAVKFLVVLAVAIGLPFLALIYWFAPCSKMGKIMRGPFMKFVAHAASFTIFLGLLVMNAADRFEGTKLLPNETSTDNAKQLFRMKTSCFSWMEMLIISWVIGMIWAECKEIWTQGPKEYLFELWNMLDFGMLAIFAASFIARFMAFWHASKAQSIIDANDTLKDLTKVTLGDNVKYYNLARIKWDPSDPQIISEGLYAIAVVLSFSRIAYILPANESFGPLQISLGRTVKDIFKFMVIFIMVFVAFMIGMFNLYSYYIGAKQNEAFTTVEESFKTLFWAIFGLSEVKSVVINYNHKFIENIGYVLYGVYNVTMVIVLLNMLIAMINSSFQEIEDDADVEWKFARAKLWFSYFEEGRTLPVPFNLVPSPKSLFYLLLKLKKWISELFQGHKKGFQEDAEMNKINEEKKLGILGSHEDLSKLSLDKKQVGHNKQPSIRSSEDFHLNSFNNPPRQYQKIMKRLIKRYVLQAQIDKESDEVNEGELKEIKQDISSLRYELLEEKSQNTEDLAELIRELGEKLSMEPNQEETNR
Nature of the assay: Evaluation of TRPC6 channel inhibitory activity (1), FLIPR Calcium 5 Assay Kit, OAG stimulation (Compound Nos. 1-1293). Format: cell-based.
Details: not given
The procedure, abridged:
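Cells stably expressing human TRPC6, plated 24 h before, were loaded 30 min with Calcium 5 dye plus probenecid in HEPES-HBSS. Compound was added 20 min before OAG (30 μM final) and fluorescence tracked on FLIPR. Inhibition normalised to no-compound and no-compound/no-OAG wells; pIC50 from four-parameter fit, reported as +/++/+++ categories.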
Consider `N#Cc1ccc(-c2ncc(CN)cn2)c(Oc2cc(N3C4CCC3CC4)ncc2C#N)c1` [compound 749, 4-[2-[5-(aminomethyl)pyrimidin-2-yl]-5-cyanophenoxy]-6-(7-azabicyclo[2.2.1]heptan-7-yl)pyridine-3-carbonitrile], for which the IC50 lay within 10 to 1000 nM.

The assay is the same for the next values; noted with them: Human TRPC6 stably-expressing cells, OAG 30 μM, FLIPR Calcium 5 Assay Kit; read-out: Inhibitory activity (pIC50 class) (converted).
As to `Cc1nc(Oc2cc(C#N)ccc2-n2ncc3c2CCNC3)cc(N2CCCCC2)n1` [compound 745, 3-(2-methyl-6-piperidin-1-ylpyrimidin-4-yl)oxy-4-(4,5,6,7-tetrahydropyrazolo[4,3-c]pyridin-1-yl)benzonitrile], the IC50 is more than 1000 nM.

Regarding `N#Cc1ccc(-c2ccc(CCN)cc2)c(C(=O)c2nnc(N3CCOCC3)s2)c1` [compound 1088, 4-[4-(2-aminoethyl)phenyl]-3-(5-morpholin-4-yl-1,3,4-thiadiazole-2-carbonyl)benzonitrile], the IC50 is 10 to 1000 nM.

Regarding `Cc1nc(Oc2cc(C#N)ccc2-n2cnc(C(O)CN)c2)cc(-c2ccccc2)n1` (stereo not drawn) [Compound 200, 4-[4-(2-amino-1-hydroxyethyl)imidazol-1-yl]-3-(2-methyl-6-phenylpyrimidin-4-yl)oxybenzonitrile], the IC50 is more than 1000 nM.

Regarding `Cc1cc(Oc2cc(C#N)ccc2-c2ccc([C@H](O)CN)cn2)cc(OCCOC(C)C)n1` [compound 479, 4-[5-[(1S)-2-amino-1-hydroxyethyl]pyridin-2-yl]-3-[2-methyl-6-(2-propan-2-yloxyethoxy)pyridin-4-yl]oxybenzonitrile], the IC50 was more than 1000 nM.

For the molecule `Cc1nc(Oc2cc(C#N)ccc2-n2cc3c(n2)CNCC3)cc(N2CCCCC2)n1` [compound 746, 3-(2-methyl-6-piperidin-1-ylpyrimidin-4-yl)oxy-4-(4,5,6,7-tetrahydropyrazolo[3,4-c]pyridin-2-yl)benzonitrile], the IC50 was more than 1000 nM.

Turning to `Cn1nc(C2CC2)cc1Oc1cc(C#N)ccc1-c1ccc(CN)n2cnnc12` [compound 641, 4-[5-(aminomethyl)-[1,2,4]triazolo[4,3-a]pyridin-8-yl]-3-(5-cyclopropyl-2-methylpyrazol-3-yl)oxybenzonitrile], the IC50 is 10 to 1000 nM.

As for `CCN(CC)c1cc(Oc2cc(C#N)ccc2-c2ccc([C@H](F)CN)cn2)n(C)n1` [compound 915, 4-[5-[(1S)-2-amino-1-fluoroethyl]pyridin-2-yl]-3-[5-(diethylamino)-2-methylpyrazol-3-yl]oxybenzonitrile], the IC50 is less than 10 nM.

As for `NCCc1cnc(-c2ccc(Cl)cc2Oc2cnn(CC(F)F)c2)nc1` [compound 1022, 2-[2-[4-chloro-2-[1-(2,2-difluoroethyl)pyrazol-4-yl]oxyphenyl]pyrimidin-5-yl]ethanamine], the IC50 is more than 1000 nM.

For the molecule `Cn1nc(-c2ccccc2)cc1Oc1cc(Cl)ncc1-c1ccc(CN)cn1` [compound 1291, [6-[6-chloro-4-(2-methyl-5-phenylpyrazol-3-yl)oxypyridin-3-yl]pyridin-3-yl]methanamine], the IC50 is more than 1000 nM.

For `CN(CC(F)F)c1cc(Oc2cc(C#N)ccc2-c2ncc(CN)cn2)n(C)n1` [compound 873, 4-[5-(aminomethyl)pyrimidin-2-yl]-3-[5-[2,2-difluoroethyl(methyl)amino]-2-methylpyrazol-3-yl]oxybenzonitrile], the IC50 was less than 10 nM.

For the molecule `Cn1nc(-c2ccccc2)cc1Oc1cc(C#N)ccc1-c1cnc(CN)cn1` [Compound 290, 4-[5-(aminomethyl)pyrazin-2-yl]-3-(2-methyl-5-phenylpyrazol-3-yl)oxybenzonitrile], the IC50 was 10 to 1000 nM.

As to `Cn1nc(-c2ccccn2)cc1Oc1nc(C#N)ccc1-c1ccc(CCN)cn1` [compound 1280, 5-[5-(2-aminoethyl)pyridin-2-yl]-6-(2-methyl-5-pyridin-2-ylpyrazol-3-yl)oxypyridine-2-carbonitrile], the IC50 was less than 10 nM.

In the case of `Cc1cc(Oc2cc(C#N)ccc2-c2ccc([C@H](O)CN)cn2)cc(N2CC(F)C2)n1` [compound 502, 4-[5-[(1S)-2-amino-1-hydroxyethyl]pyridin-2-yl]-3-[2-(3-fluoroazetidin-1-yl)-6-methylpyridin-4-yl]oxybenzonitrile], the IC50 is less than 10 nM.

In the case of `CN(C)c1cc(Sc2cc(C#N)ccc2-c2ccc(CN)cn2)cnn1` [compound 1266, 4-[5-(aminomethyl)pyridin-2-yl]-3-[6-(dimethylamino)pyridazin-4-yl]sulfanylbenzonitrile], the IC50 was 10 to 1000 nM.

Turning to `Cc1nc(Oc2cc(C#N)ccc2-n2cc([C@@H](O)CN)cn2)cc(-c2ccccn2)n1` [compound 352, 4-[4-[(1R)-2-amino-1-hydroxyethyl]pyrazol-1-yl]-3-(2-methyl-6-pyridin-2-ylpyrimidin-4-yl)oxybenzonitrile], the IC50 is 10 to 1000 nM.

`CN(C)c1cc(Oc2cc(C#N)ccc2-c2ccc([C@H](F)CN)cn2)n(C)n1` [compound 909, 4-[5-[(1S)-2-amino-1-fluoroethyl]pyridin-2-yl]-3-[5-(dimethylamino)-2-methylpyrazol-3-yl]oxybenzonitrile]: the IC50 was less than 10 nM.

For `CCCCc1cc(Oc2cc(C#N)ccc2-c2ncc(CCN)cn2)n(C)n1` [compound 319, 4-[5-(2-aminoethyl)pyrimidin-2-yl]-3-(5-butyl-2-methylpyrazol-3-yl)oxybenzonitrile], the IC50 is less than 10 nM.

With `CN(C)C(=O)c1cc(Oc2cc(C#N)ccc2-c2ncc(CN)cn2)n(C)n1` [compound 956, 5-[2-[5-(aminomethyl)pyrimidin-2-yl]-5-cyanophenoxy]-N,N,1-trimethylpyrazole-3-carboxamide], the IC50 is 10 to 1000 nM.

With `Cc1nc(Oc2cc(F)ccc2-c2ccc(CN)cn2)cc(N2CCOCC2)n1` [compound 1003, [6-[4-fluoro-2-(2-methyl-6-morpholin-4-ylpyrimidin-4-yl)oxyphenyl]pyridin-3-yl]methanamine], the IC50 was 10 to 1000 nM.

With `Cn1nc(-c2ccccc2)cc1Oc1cc(C#N)ccc1-c1cc2c(cn1)CNCC2` [Compound 291, 3-(2-methyl-5-phenylpyrazol-3-yl)oxy-4-(5,6,7,8-tetrahydro-2,7-naphthylidin-3-yl)benzonitrile], the IC50 was more than 1000 nM.

With `Cc1nc(Oc2cc(C#N)ccc2-c2ccc(CCN)cc2)cc(N2CCOCC2)n1` [Compound 7, 4-[4-(2-Aminoethyl)phenyl]-3-(2-methyl-6-morpholin-4-ylpyrimidin-4-yl)oxybenzonitrile], the IC50 is less than 10 nM.

Regarding `N#Cc1ccc(-c2ccc(CCN)cn2)c(Cn2cnc(-c3ccccc3F)c2)c1` [compound 1143, 4-[5-(2-aminoethyl)pyridin-2-yl]-3-[[4-(2-fluorophenyl)imidazol-1-yl]methyl]benzonitrile], the IC50 was less than 10 nM.

Regarding `Cn1nc2c(c1Oc1cc(C#N)ccc1-c1nccc(CN)n1)CCCC2` [compound 685, 4-[4-(aminomethyl)pyrimidin-2-yl]-3-[(2-methyl-4,5,6,7-tetrahydroindazol-3-yl)oxy]benzonitrile], the IC50 was more than 1000 nM.

With `Cn1nc(N2CCOCC2)cc1C(=O)c1cc(F)ccc1-c1ncc(CCN)cn1` [compound 1107, [2-[5-(2-aminoethyl)pyrimidin-2-yl]-5-fluorophenyl]-(2-methyl-5-morpholin-4-ylpyrazol-3-yl)methanone], the IC50 was less than 10 nM.

On to `N#Cc1ccc(-c2ccc([C@@H](O)CN)cn2)c(Cn2cncc2-c2ccccc2)c1` [compound 1136, 4-[5-[(1R)-2-amino-1-hydroxyethyl]pyridin-2-yl]-3-[(5-phenylimidazol-1-yl)methyl]benzonitrile], for which the IC50 is more than 1000 nM.

On to `Cn1nc(-c2nccs2)cc1Oc1cc(C#N)ccc1-c1ncc(CN)cn1` [compound 592, 4-[5-(aminomethyl)pyrimidin-2-yl]-3-[2-methyl-5-(1,3-thiazol-2-yl)pyrazol-3-yl]oxybenzonitrile], for which the IC50 was less than 10 nM.

As to `Cc1nc(Oc2cc(C#N)ccc2-c2ccc(CCN)nc2)cc(N2CCOCC2)n1` [Compound 74, 4-[6-(2-aminoethyl)pyridin-3-yl]-3-(2-methyl-6-morpholin-4-ylpyrimidin-4-yl)oxybenzonitrile], the IC50 was 10 to 1000 nM.

Take `Cc1nc(OCC(F)(F)F)cc(Oc2cc(C#N)ccc2-c2ccc(CCN)cc2)n1` [Compound 35, 4-[4-(2-aminoethyl)phenyl]-3-[2-methyl-6-(2,2,2-trifluoroethoxy)pyrimidin-4-yl]oxybenzonitrile]: the IC50 is 10 to 1000 nM.

With `Cn1nc(C2CCCC2)cc1Oc1cc(C#N)ccc1-c1ncc(CCN)cn1` [compound 393, 4-[5-(2-aminoethyl)pyrimidin-2-yl]-3-(5-cyclopentyl-2-methylpyrazol-3-yl)oxybenzonitrile], the IC50 is less than 10 nM.
